From patent US20220125748A1, “HISTONE ACETYLTRANSFERASE (HAT) REGULATORS AND USES THEREOF” (The Trustees of Columbia University in the City of New York, priority 2019, published 2022)
“Also recorded” adds a separate entry of the source.

Legend:
[1] = Stability in human liver microsomes; assay type: in vitro ADME; details: both sexes
Description: Compounds were tested for stability in human liver microsomes.
Experimental Procedure • Mixed-gender human liver microsomes (Lot #1210347) were purchased from XenoTech. The reaction mixture, minus NADPH, was prepared as described below. The test article was added into the reaction mixture at a final concentration of 1 μM. The control compound, testosterone, was run simultaneously with the test articles in a separate reaction. An aliquot of the reaction mixture (without cofactor) was equilibrated in a shaking water bath at 37° C. for 3 minutes. The reaction was initiated by the addition of the cofactor, and the mixture was incubated in a shaking water bath at 37° C. Aliquots (100 μL) were withdrawn at 0, 10, 20, 30, and 60 minutes. Test article and testosterone samples were immediately combined with 400 μL of ice-cold 50/50 acetonitrile (ACN)/H2O containing 0.1% formic acid and internal standard to terminate the reaction. […] Half-lives and clearance were calculated using GraphPad software, fitting to a single-phase exponential decay equation. […]
Note (a): When the calculated half-life is longer than the duration of the experiment, the half-life is expressed as being greater than the longest incubation time. Note (b): Intrinsic clearance (CLint) was calculated based on CLint=k/P, where k is the elimination constant and P is the protein concentration in the incubation.

p300 = p300 (Homo sapiens, UniProt Q09472); experiment: In vitro acetylation assay (p300, histone 3 Lys 18 / Lys 27, western blot); assay type: biochemical; details: compound in DMSO; for EC50: read-out: H3-Lys 18 EC50; for H3-Lys 27 EC50 / H3-Lys 27 IC50: Lys 27 of histone 3
p300, sequence (Q09472 whole entry, species assumed): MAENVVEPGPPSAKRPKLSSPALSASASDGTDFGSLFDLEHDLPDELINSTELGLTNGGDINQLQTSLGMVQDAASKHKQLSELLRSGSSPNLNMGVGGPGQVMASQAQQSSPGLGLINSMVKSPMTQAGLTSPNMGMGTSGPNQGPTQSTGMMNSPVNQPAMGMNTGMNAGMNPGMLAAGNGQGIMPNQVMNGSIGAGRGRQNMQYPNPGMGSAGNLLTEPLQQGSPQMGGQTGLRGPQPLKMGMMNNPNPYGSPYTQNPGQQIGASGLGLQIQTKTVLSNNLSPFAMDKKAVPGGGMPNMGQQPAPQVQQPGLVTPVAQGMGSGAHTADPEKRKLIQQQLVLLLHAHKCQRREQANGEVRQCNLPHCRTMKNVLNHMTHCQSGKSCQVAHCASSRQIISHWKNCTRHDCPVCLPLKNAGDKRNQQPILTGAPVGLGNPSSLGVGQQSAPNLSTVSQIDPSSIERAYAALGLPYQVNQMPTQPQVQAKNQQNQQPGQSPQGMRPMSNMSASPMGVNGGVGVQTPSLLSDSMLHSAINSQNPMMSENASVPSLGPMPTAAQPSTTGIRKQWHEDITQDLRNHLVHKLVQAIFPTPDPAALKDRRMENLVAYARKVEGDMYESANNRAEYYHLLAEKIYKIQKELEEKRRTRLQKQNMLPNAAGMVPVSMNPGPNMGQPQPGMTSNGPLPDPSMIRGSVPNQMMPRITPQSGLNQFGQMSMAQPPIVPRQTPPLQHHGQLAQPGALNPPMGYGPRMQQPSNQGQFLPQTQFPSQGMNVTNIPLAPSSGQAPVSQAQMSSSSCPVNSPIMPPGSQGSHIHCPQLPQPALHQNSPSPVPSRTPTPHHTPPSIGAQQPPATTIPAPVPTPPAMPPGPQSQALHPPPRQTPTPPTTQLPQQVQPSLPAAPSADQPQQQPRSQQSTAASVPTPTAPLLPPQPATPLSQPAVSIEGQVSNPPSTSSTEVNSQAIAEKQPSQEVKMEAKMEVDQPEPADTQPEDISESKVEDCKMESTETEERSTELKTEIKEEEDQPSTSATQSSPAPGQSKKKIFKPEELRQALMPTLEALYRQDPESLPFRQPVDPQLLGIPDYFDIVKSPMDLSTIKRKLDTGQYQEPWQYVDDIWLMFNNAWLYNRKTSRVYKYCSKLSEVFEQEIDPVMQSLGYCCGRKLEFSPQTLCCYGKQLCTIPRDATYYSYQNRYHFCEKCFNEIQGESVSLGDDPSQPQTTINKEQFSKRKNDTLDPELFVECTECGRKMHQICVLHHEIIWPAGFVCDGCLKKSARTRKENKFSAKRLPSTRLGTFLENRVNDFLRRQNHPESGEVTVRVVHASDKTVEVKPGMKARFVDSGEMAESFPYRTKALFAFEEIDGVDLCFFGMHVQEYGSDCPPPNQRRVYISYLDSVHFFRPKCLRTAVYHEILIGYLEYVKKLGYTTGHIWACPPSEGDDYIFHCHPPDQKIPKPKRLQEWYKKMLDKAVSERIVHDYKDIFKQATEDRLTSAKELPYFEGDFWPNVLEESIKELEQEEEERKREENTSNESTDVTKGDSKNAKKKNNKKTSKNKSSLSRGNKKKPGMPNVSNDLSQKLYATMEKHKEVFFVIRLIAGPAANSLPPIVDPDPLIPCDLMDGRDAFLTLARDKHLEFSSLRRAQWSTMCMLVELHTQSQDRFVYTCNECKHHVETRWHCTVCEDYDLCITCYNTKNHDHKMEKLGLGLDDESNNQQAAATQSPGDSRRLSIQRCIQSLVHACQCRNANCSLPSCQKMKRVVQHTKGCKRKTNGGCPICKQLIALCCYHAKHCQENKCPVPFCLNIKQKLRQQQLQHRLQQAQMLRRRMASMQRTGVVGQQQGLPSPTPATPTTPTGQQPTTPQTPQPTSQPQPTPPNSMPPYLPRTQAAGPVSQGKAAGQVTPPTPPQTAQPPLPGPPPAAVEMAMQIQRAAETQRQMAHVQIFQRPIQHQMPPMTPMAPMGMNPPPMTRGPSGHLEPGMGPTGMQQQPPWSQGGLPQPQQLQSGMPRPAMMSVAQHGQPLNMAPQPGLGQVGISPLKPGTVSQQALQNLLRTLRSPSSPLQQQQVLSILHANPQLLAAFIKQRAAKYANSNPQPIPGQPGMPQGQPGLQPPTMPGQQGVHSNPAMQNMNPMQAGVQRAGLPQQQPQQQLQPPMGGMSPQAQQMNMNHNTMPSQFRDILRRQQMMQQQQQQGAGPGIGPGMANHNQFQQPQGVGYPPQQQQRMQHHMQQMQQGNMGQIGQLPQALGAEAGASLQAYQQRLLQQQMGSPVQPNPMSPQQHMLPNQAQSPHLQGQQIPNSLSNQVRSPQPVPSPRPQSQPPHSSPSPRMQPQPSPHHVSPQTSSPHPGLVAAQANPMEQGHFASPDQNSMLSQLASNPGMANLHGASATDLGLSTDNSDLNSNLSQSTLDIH
Description: The aim of the in vitro acetylation assay is to measure the enzymatic activity of the various compounds towards p300. Results are provided in FIG. 3A to FIG. 7B for average values of lysine residue acetylation (continuous line) and their standard error range measured in the absence of compound and DMSO, wherein “n” represents the number of replicates.
First, the drug is prepared:
Second, dilute p300 in AM1 buffer to a concentration of 40 ng/μL (final concentration in the reaction 20 ng/μL). This is accomplished by diluting 1 μL of p300 (at 0.4 μg/μL) into […] of AM1 buffer.
Third, prepare the Master Mix. Prepare the Master Mix in low protein binding tubes (ThermoFisher Cat. No. 90410), 20 μL system.
Incubate reactions at 30° C. for 30 minutes.
Incubate reactions at 30° C. for 1 hour.
Fourth, perform the western blot assay. • Add 6.7 μL of Laemmli Sample Buffer 4× (Bio-Rad Laboratories Cat. No. 161-0737) for each reaction and boil samples at 95° C. for 5 min. • Charge 10 μL for each sample in 2 Tris Glycine 4-15% gels (Bio-Rad Laboratories Cat. No. 456-1086). Running Buffer: Tris-Glycine 1× (pour in the cell up to the writing “2 gels”). • Run at 90 V for 1 hour (until the gel front reaches the green line of cell). • Semi-dry transfer with Trans-Blot® Turbo™ Blotting System from Bio-Rad Laboratories (Trans-Blot® Turbo™ RTA midi PVDF transfer kit Cat. No1704275). • Activate PVDF membrane in methanol for 5 minutes and then wet in Trans-Blot® Turbo™ transfer buffer. • Wet stacks in transfer buffer. • Transfer at 23 V 1.3 A for 7 minutes. • Blocking buffer: 5% Non-Fat milk in TBST (tween 0.1%) 1 hour at room temperature. • Cut the membranes to get Ac-His 3 at 17 kDa and p300 at 300 kDa. • Incubate with primary antibodies overnight at 4° C. • The day after, make 3 washes in TBST (Tween 0.1%) of 10 minutes. • Incubate with secondary antibody at room temperature for 1 hour. • Make 3 washes in TBST (Tween 0.1%) of 5 minutes. • Incubate membranes with ECL (SuperSignal West Dura Extended Duration Substrate from ThermoFisher) for 5 minutes at room temperature. • Acquire the image with ChemiDoc Odyssey Fc 2 minutes.
To detect total H3 (loading control), strip the membranes with Restore™ Western Blot Stripping Buffer according to the manufacturer protocol.
Various compounds were tested for enzymatic activity with respect to Lys 18 and Lys 27 of histone 3. EC50 is indicated for activators and IC50 for inhibitors respectively.

[2] = tested on: mice administered with oTau; experiment: 2 day radial arm water maze (RAWM), spatial short-term memory; assay type: in vivo; details: oTau 500 nM, YF2 5 mg/kg
Description: Oligomeric tau caused a defect of spatial memory and associative memory. YF2 was injected in mice either alone or concurrently with oligomeric tau. The compound rescued the oligomeric tau induced defect in memory. […] The performance in the RAWM was impaired in mice administered with oTau (500 nM). […] The performance was not impaired when mice were treated with only YF2 or vehicle.

[3] = tested on: hippocampal slices from WT mice perfused with oTau; experiment: oTau-induced LTP deficit in hippocampal slices
Description: against tau induced synaptic dysfunction. Oligomeric tau caused a defect of LTP. YF2 was applied to hippocampal slices either alone or concurrently with oligomeric tau. […] FIG. 8 is a graph illustrating that YF2 rescues oTau-induced LTP deficits. LTP was impaired in hippocampal slices from WT mice perfused with oTau. The concurrent treatment with YF2 and oTau reestablished normal LTP. There was no impairment in slices treated with YF2 or vehicle. The horizontal solid bar represents oTau perfusion while the horizontal dashed bar represents drug treatment. The three arrows correspond to the theta-burst stimulation. Two-Way ANOVA Vehicle vs. oTau: F(1, 21)=21.32, p=0.0001; Vehicle vs. YF2: F(1, 21)=0.200, p=0.6593; Vehicle vs. YF2+oTau: F(1, 22)=0.3455, p=0.563; YF2 vs. oTau: F(1, 22)=13.72, p=0.0012; YF2 vs. YF2+oTau: F(1, 23)=0.00043, p=0.984; YF2+oTau vs. oTau: F(1, 23)=31.52, p<0.0001.

[4] = tested on: mice administered with oTau; experiment: Contextual fear memory; assay type: in vivo; details: YF2 plus oTau vs oTau, 24 hrs after the electric shock
Description: A statistical significant difference is visible when comparing all groups during testing for contextual fear memory at 24 hrs after the electric shock (ANOVA among all groups: F(3, 53)=3.051 p=0.0364).

[5] = Lys 18 of histone 3, EC50 for activators

Question: Which half-life at 1 μM ([1]; pH 7.4, 1 μM, single-phase exponential decay fit) does the source give for C[C@]12CC[C@H]3[C@@H](CCC4=CC(=O)CC[C@@]43C)[C@@H]1CC[C@@H]2O [Testosterone, testosterone] here?
Answer: 40.6 min

Question: And the microsomal CLint at 1 μM ([1]; pH 7.4, CLint=k/P)?
Answer: 34.1 µL/min/mg

Question: For FC(F)(F)c1cc(N2COc3ccccc3C2)ccc1Cl [JF17], which EC50 (p300; [5]) is on record?
Answer: 103 nM

Question: For CN(C)CCOc1cccc2c1C(=O)N(c1ccc(Cl)c(C(F)(F)F)c1)C2=O [JF19], which “H3-Lys 18 EC50” value (p300; [5]) is on record?
Answer: NO ACTIVITY

Question: And the “H3-Lys 18 IC50” value (p300; Lys 18 of histone 3, IC50 for inhibitors)?
Answer: NO ACTIVITY

Question: What about the “H3-Lys 27 EC50” value (p300; EC50 for activators) of the same compound?
Answer: NO ACTIVITY

Question: And the “H3-Lys 27 IC50” value (p300; IC50 for inhibitors)?
Answer: NO ACTIVITY

Question: For CCOc1cccc(OCCN2CCOCC2)c1C(C)Nc1ccc(O)c(C(F)(F)F)c1 (centres unmarked) [JF2], which EC50 (p300; [5]) is on record?
Answer: 138 nM

Question: And the “H3-Lys 27 EC50” value (p300; EC50 for activators)?
Answer: NO ACTIVITY

Question: And the “H3-Lys 27 IC50” value (p300; IC50 for inhibitors)?
Answer: NO ACTIVITY

Question: What does the source list for CCOc1cccc(OCCN(C)C)c1C(=O)Nc1ccc(Cl)c(C(F)(F)F)c1 [YF2]?
Answer: RAWM performance, oTau-induced deficit [2]: rescued the deficit; also recorded: rescues oTau-induced defects; LTP with compound alone ([3]; hippocampal slices treated with YF2 alone): no impairment; effect on oligomeric tau induced defect in long-term potentiation ([3]; hippocampal slices, concurrent treatment with YF2 and oTau): rescued the oligomeric tau induced defect in long-term potentiation; also recorded: rescues oligomeric-Tau (oTau)-induced LTP deficits; contextual fear memory (freezing), oTau-induced deficit [4]: rescues oTau-induced deficit in contextual fear memory; also recorded: rescues oTau-induced defects in contextual fear memory
